According to US8987258B2 (priority 2008, dated 2015):
Each block holds one molecule with its values, some of them ahead of it.

Target: T1, SIRT1 (Homo sapiens, UniProt Q96EB6)
T1 sequence (Q96EB6 1-747): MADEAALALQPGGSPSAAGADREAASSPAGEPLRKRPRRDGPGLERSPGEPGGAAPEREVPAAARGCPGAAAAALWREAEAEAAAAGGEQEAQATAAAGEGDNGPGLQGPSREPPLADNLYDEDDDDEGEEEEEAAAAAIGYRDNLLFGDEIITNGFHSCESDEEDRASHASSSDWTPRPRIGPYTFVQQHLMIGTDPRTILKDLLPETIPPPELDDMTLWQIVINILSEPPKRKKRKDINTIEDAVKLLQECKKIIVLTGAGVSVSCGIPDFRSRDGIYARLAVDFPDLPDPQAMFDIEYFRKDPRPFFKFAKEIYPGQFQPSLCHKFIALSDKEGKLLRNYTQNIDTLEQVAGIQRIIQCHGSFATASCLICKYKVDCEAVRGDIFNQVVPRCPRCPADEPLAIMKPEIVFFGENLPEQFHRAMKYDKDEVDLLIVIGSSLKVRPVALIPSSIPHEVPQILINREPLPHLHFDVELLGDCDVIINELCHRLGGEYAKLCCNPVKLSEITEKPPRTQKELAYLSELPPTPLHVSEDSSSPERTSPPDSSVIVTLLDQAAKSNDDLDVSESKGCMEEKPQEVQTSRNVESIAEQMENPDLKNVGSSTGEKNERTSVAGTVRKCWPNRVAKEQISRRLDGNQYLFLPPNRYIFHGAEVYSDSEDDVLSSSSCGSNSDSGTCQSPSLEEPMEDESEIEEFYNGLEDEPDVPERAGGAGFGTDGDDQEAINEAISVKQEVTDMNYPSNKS
Assay: Mass spectrometry based SIRT1 deacetylase activation assay
Type: biochemical
Settings: for EC1.5 μM: 0.5 μM peptide substrate, 120 μM βNAD+, 10 nM SIRT1, 25 min, 25° C.; for Emax: 25 min, mass spectrometry assay, read-out: % Fold Act. (percent maximum fold activation)
Excerpt: A mass spectrometry based assay was used to identify modulators of SIRT1 activity. The mass spectrometry based assay utilizes a peptide having 20 amino acid residues as follows: Ac-EE-K(biotin)-GQSTSSHSK(Ac)NleSTEG-K(5TMR)-EE-NH2 (SEQ ID NO: 1) wherein K(Ac) is an acetylated lysine residue and Nle is a norleucine. The peptide is labeled with the fluorophore 5TMR (excitation 540 nm/emission 580 nm) at the C-terminus. The sequence of the peptide substrate is based on p53 with several modifications. In addition, the methionine residue naturally present in the sequence was replaced with the norleucine because the methionine may be susceptible to oxidation during synthesis and purification.
The mass spectrometry assay is conducted as follows: 0.5 μM peptide substrate and 120 μM βNAD^+ is incubated with 10 nM SIRT1 for 25 minutes at 25° C. in a reaction buffer (50 mM Tris-acetate pH 8, 137 mM NaCl, 2.7 mM KCl, 1 mM MgCl2, 5 mM DTT, 0.05% BSA). Test compounds may be added to the reaction as described above. […] After the 25 minute incubation with SIRT1, 10 μL of 10% formic acid is added to stop the reaction. Reactions are sealed and frozen for later mass spec analysis. Determination of the mass of the substrate peptide allows for precise determination of the degree of acetylation (i.e. starting material) as compared to deacetylated peptide (product).
A control for inhibition of sirtuin activity is conducted by adding 1 μL of 500 mM nicotinamide as a negative control at the start of the reaction (e.g., permits determination of maximum sirtuin inhibition). A control for activation of sirtuin activity is conducted using 10 nM of sirtuin protein, with 1 μL of DMSO in place of compound, to determine the amount of deacetylation of the substrate at a given timepoint within the linear range of the assay. This timepoint is the same as that used for test compounds and, within the linear range, the endpoint represents a change in velocity.
For the above assay, SIRT1 protein was expressed and purified as follows. […] The protein was expressed by induction with 1 mM IPTG as an N-terminal His-tag fusion protein at 18° C. overnight and harvested at 30,000×g. Cells were lysed with lysozyme in lysis buffer (50 mM Tris-HCl, 2 mM Tris[2-carboxyethyl]phosphine (TCEP), 10 μM ZnCl2, 200 mM NaCl) and further treated with sonication for 10 min for complete lysis. The protein was purified over a Ni-NTA column (Amersham) and fractions containing pure protein were pooled, concentrated and run over a sizing column (Sephadex S200 26/60 global). The peak containing soluble protein was collected and run on an Ion-exchange column (MonoQ). Gradient elution (200 mM-500 mM NaCl) yielded pure protein. This protein was concentrated and dialyzed against dialysis buffer (20 mM Tris-HCl, 2 mM TCEP) overnight. The protein was aliquoted and frozen at −80° C. until further use.

Structure (SMILES): O=C(Nc1cccc2c(=O)cc(-c3ccccc3)oc12)c1cscn1 [Compound 200]
EC1.5 μM: C (EC1.5>25 μM) | Emax: < 200%

Structure (SMILES): O=C(Nc1cccc2c(=O)cc(-c3ccccc3)oc12)c1cnccn1 [Compound 201]
EC1.5 μM: C (EC1.5>25 μM) | Emax: < 200%

Structure (SMILES): O=C(Nc1cccc2c(=O)cc(-c3cccc(OC(F)(F)F)c3)oc12)c1cscn1 [Compound 202]
EC1.5 μM: C (EC1.5>25 μM) | Emax: < 200%

Structure (SMILES): O=C(Nc1cccc2c(=O)cc(-c3cccc(OC(F)(F)F)c3)oc12)c1cnccn1 [Compound 203]
EC1.5 μM: B (EC1.5 1-25 μM) | Emax: < 200%

Structure (SMILES): O=C(Nc1cccc2c(=O)cc(-c3cccc(C(F)(F)F)c3)oc12)c1cscn1 [Compound 204, N-(4-oxo-2-(3-(trifluoromethyl)phenyl)-4H-chromen-8-yl)thiazole-4-carboxamide]
EC1.5 μM: B (EC1.5 1-25 μM) | Emax: < 200%

Structure (SMILES): O=C(Nc1cccc2c(=O)cc(-c3cccc(C(F)(F)F)c3)oc12)c1cnccn1 [Compound 205]
EC1.5 μM: C (EC1.5>25 μM) | Emax: < 200%

Structure (SMILES): O=C(Nc1nccs1)c1cccc2c(=O)cc(-c3cccc(C(F)(F)F)c3)oc12 [Compound 206]
EC1.5 μM: C (EC1.5>25 μM) | Emax: < 200%

Structure (SMILES): O=C(Nc1ccccn1)c1cccc2c(=O)cc(-c3cccc(C(F)(F)F)c3)oc12 [Compound 207]
EC1.5 μM: C (EC1.5>25 μM) | Emax: < 200%

Structure (SMILES): O=C(Nc1nccs1)c1cccc2c(=O)cc(-c3cccc(N4CCOCC4)c3)oc12 [Compound 208]
EC1.5 μM: C (EC1.5>25 μM) | Emax: < 200%

Structure (SMILES): O=C(Nc1ccccn1)c1cccc2c(=O)cc(-c3cccc(N4CCOCC4)c3)oc12 [Compound 209]
EC1.5 μM: C (EC1.5>25 μM) | Emax: < 200%

Structure (SMILES): O=C(Nc1nccs1)c1cccc2c(=O)cc(-c3cccc(OC(F)(F)F)c3)oc12 [Compound 210]
EC1.5 μM: C (EC1.5>25 μM) | Emax: < 200%

Structure (SMILES): O=C(Nc1ccccn1)c1cccc2c(=O)cc(-c3cccc(OC(F)(F)F)c3)oc12 [Compound 211]
EC1.5 μM: C (EC1.5>25 μM) | Emax: < 200%

Structure (SMILES): O=C(Nc1cccc2c(=O)cc(-c3cccc(N4CCOCC4)c3)oc12)c1cscn1 [Compound 212]
EC1.5 μM: B (EC1.5 1-25 μM) | Emax: > 200%

Structure (SMILES): O=C(Nc1cccc2c(=O)cc(-c3cccc(N4CCOCC4)c3)oc12)c1ccccn1 [Compound 213]
EC1.5 μM: C (EC1.5>25 μM) | Emax: < 200%

Structure (SMILES): O=C(Nc1cccc2c(=O)cc(-c3cccc(N4CCOCC4)c3)oc12)c1cnccn1 [Compound 214]
EC1.5 μM: B (EC1.5 1-25 μM) | Emax: < 200%

Structure (SMILES): O=C(Nc1cccc2c(=O)cc(-c3cccnc3)oc12)c1cscn1 [Compound 215, N-(4-oxo-2-(pyridin-3-yl)-4H-chromen-8-yl)thiazole-4-carboxamide]
EC1.5 μM: C (EC1.5>25 μM) | Emax: < 200%

Structure (SMILES): O=C(Nc1cccc2c(=O)cc(-c3cccnc3)oc12)c1ccccn1 [Compound 216]
EC1.5 μM: C (EC1.5>25 μM) | Emax: < 200%

Structure (SMILES): O=C(Nc1cccc2c(=O)cc(-c3cccnc3)oc12)c1cnccn1 [Compound 217]
EC1.5 μM: C (EC1.5>25 μM) | Emax: < 200%

Structure (SMILES): CS(=O)(=O)c1cccc(-c2cc(=O)c3cccc(NC(=O)c4ccccn4)c3o2)c1 [Compound 218]
EC1.5 μM: B (EC1.5 1-25 μM) | Emax: < 200%

Structure (SMILES): CS(=O)(=O)c1cccc(-c2cc(=O)c3cccc(NC(=O)c4cnccn4)c3o2)c1 [Compound 219]
EC1.5 μM: C (EC1.5>25 μM) | Emax: < 200%

Structure (SMILES): CS(=O)(=O)c1cccc(-c2cc(=O)c3cccc(C(=O)Nc4nccs4)c3o2)c1 [Compound 220]
EC1.5 μM: C (EC1.5>25 μM) | Emax: < 200%

Structure (SMILES): CS(=O)(=O)c1cccc(-c2cc(=O)c3cccc(C(=O)Nc4ccccn4)c3o2)c1 [Compound 221]
EC1.5 μM: C (EC1.5>25 μM) | Emax: < 200%

Structure (SMILES): CS(=O)(=O)c1cccc(-c2cc(=O)c3cccc(NC(=O)c4cscn4)c3o2)c1 [Compound 222]
EC1.5 μM: C (EC1.5>25 μM) | Emax: < 200%

Now from value to molecule:

Emax: < 200%
Structure (SMILES): Cc1cnc(NC(=O)c2cccc3c(=O)cc(-c4ccc(Br)cc4)oc23)s1 [Compound 223]

EC1.5 μM: C (EC1.5>25 μM) | Emax: < 200%
Structure (SMILES): O=C(Nc1cccnc1)c1cccc2c(=O)cc(-c3cccc(C(F)(F)F)c3)oc12 [Compound 224, 4-oxo-N-(pyridin-3-yl)-2-(3-(trifluoromethyl)phenyl)-4H-chromene-8-carboxamide]

EC1.5 μM: C (EC1.5>25 μM) | Emax: < 200%
Structure (SMILES): O=C(Nc1cccc2c(=O)cc(-c3cccc(C(F)(F)F)c3)oc12)c1ccccn1 [Compound 225]

EC1.5 μM: C (EC1.5>25 μM) | Emax: < 200%
Structure (SMILES): O=C(Nc1cccc2c(=O)cc(-c3cccc(C(F)(F)F)c3)oc12)c1cccnc1 [Compound 226]

EC1.5 μM: A (EC1-5<1.0) | Emax: > 200%
Structure (SMILES): O=C(Nc1cccc2c(=O)cc(-c3ccccc3C(F)(F)F)oc12)c1cscn1 [Compound 227, N-(4-oxo-2-(2-(trifluoromethyl)phenyl)-4H-chromen-8-yl)thiazole-4-carboxamide]

EC1.5 μM: C (EC1.5>25 μM) | Emax: < 200%
Structure (SMILES): O=C(Nc1cccc2c(=O)cc(-c3ccc(C(F)(F)F)cc3)oc12)c1cscn1 [Compound 228]

EC1.5 μM: C (EC1.5>25 μM) | Emax: < 200%
Structure (SMILES): O=C(Nc1cccc2c(=O)cc(-c3ccc(N4CCOCC4)cc3)oc12)c1cscn1 [Compound 229]

Emax: < 200%
Structure (SMILES): O=C(Nc1cccc2c(=O)cc(-c3cccc(Br)c3)oc12)c1cscn1 [Compound 230]

Emax: > 200%
Structure (SMILES): O=C(Nc1cccc2c(=O)cc(-c3ccccc3Br)oc12)c1cscn1 [Compound 231]

Emax: < 200%
Structure (SMILES): O=C(Nc1cccc2c(=O)cc(-c3ccc(Br)cc3)oc12)c1cscn1 [Compound 232]

EC1.5 μM: C (EC1.5>25 μM) | Emax: < 200%
Structure (SMILES): O=C(Nc1cccc2c(=O)cc(-c3ccc(OC(F)(F)F)cc3)oc12)c1cnccn1 [Compound 233]

EC1.5 μM: A (EC1-5<1.0) | Emax: > 200%
Structure (SMILES): O=C(Nc1cccc2c(=O)cc(-c3ccccc3OC(F)(F)F)oc12)c1cnccn1 [Compound 234]

EC1.5 μM: C (EC1.5>25 μM) | Emax: < 200%
Structure (SMILES): Cc1cnc(NC(=O)c2cccc3c(=O)cc(-c4cccc(C(F)(F)F)c4)oc23)s1 [Compound 235]

Emax: < 200%
Structure (SMILES): Cc1cnc(NC(=O)c2cccc3c(=O)cc(-c4ccccc4Br)oc23)s1 [Compound 236]

Emax: < 200%
Structure (SMILES): Cc1cnc(NC(=O)c2cccc3c(=O)cc(-c4cccc(Br)c4)oc23)s1 [Compound 237]

EC1.5 μM: C (EC1.5>25 μM) | Emax: < 200%
Structure (SMILES): Cc1cnc(NC(=O)c2cccc3c(=O)cc(-c4ccccn4)oc23)s1 [Compound 238]

EC1.5 μM: C (EC1.5>25 μM) | Emax: < 200%
Structure (SMILES): Cc1cnc(NC(=O)c2cccc3c(=O)cc(-c4cccnc4)oc23)s1 [Compound 239]

EC1.5 μM: B (EC1.5 1-25 μM) | Emax: > 200%
Structure (SMILES): O=C(Nc1cccc2c(=O)cc(-c3ccccc3N3CCOCC3)oc12)c1cscn1 [Compound 240]

EC1.5 μM: B (EC1.5 1-25 μM) | Emax: > 200%
Structure (SMILES): CS(=O)(=O)c1ccccc1-c1cc(=O)c2cccc(NC(=O)c3ccccn3)c2o1 [Compound 241]
